The source of these data is PubChem BioAssay (NCI).

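All cell lines were grown in 96-well plates and treated with compound for 48 hours. Here, GI50 denotes the concentration required for 50% inhibition of growth. TGI denotes the concentration required for complete inhibition of growth.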

Some test systems named below: SK-MEL-2 melanoma; HCC-2998 colon; RPMI-8226 leukemia; UO-31 renal; SK-MEL-28 melanoma; NCI-H460 lung.
Common to all, as to experiment: NCI-60 cell line screen, 48 h

Turning to `NNC(=O)N/N=C1\CNC(=O)C(=O)C1c1nc2ccccc2s1` (stereo not given), the TGI in the assay on SK-MEL-2 melanoma, in the assay on HCC-2998 colon, in the assay on RPMI-8226 leukemia, in the assay with UO-31 renal, in the assay with SK-MEL-28 melanoma and in the assay on NCI-H460 lung was > 100 µM each time.

Regarding `Cc1c(C)c2ccc(OC(C)C(=O)O)cc2oc1=O` (stereo not given), the TGI with HCC-2998 colon, in the assay with RPMI-8226 leukemia, with UO-31 renal, with SK-MEL-28 melanoma and with NCI-H460 lung was > 100 µM throughout.

Turning to `C/C(CC(=O)Nc1cccc(Cl)c1C)=N\N=C(N)N`, the TGI with SK-MEL-2 melanoma, in the assay with HCC-2998 colon, in the assay with RPMI-8226 leukemia, in the assay on UO-31 renal, in the assay with SK-MEL-28 melanoma and with NCI-H460 lung was > 100 µM each time.

Take `CC(C)=CC(=O)CC(=O)C(=O)NCCNC(=O)C(=O)CC(=O)C=C(C)C`: the TGI in the assay with SK-MEL-2 melanoma, in the assay on HCC-2998 colon, in the assay with RPMI-8226 leukemia, with UO-31 renal, with SK-MEL-28 melanoma and with NCI-H460 lung was > 50 µM each time.

`CCOc1ccc(/C=C2/C(=O)N=C(N)N=C2N)cc1OCC`: the TGI with SK-MEL-2 melanoma, in the assay on HCC-2998 colon, with RPMI-8226 leukemia, with UO-31 renal, with SK-MEL-28 melanoma and with NCI-H460 lung was > 100 µM each time.

With `O=c1[nH]c(=O)n(C2CC(O)C(O)C(CO)O2)cc1F` (stereo not given), the TGI with SK-MEL-2 melanoma, in the assay with HCC-2998 colon, in the assay with RPMI-8226 leukemia, in the assay on UO-31 renal, in the assay on SK-MEL-28 melanoma and in the assay on NCI-H460 lung was > 100 µM in each case.

`O=C(Nc1ccc(Cl)c(Cl)c1)C1C(=O)N(c2ccc(Cl)c(Cl)c2)C(=O)/C1=N\O` (stereo not given): the TGI is > 100 µM in the assay on SK-MEL-2 melanoma; > 100 µM in the assay with HCC-2998 colon; > 100 µM with RPMI-8226 leukemia; > 100 µM in the assay with UO-31 renal; 82.8 µM in the assay with SK-MEL-28 melanoma.

`C1=C(c2ccccc2)C(OC2Oc3ccccc3C=C2c2ccccc2)Oc2ccccc21` (stereo not given): the TGI with SK-MEL-2 melanoma, with HCC-2998 colon, in the assay on RPMI-8226 leukemia, in the assay with UO-31 renal, in the assay on SK-MEL-28 melanoma and in the assay on NCI-H460 lung was > 100 µM in each case.

As to `CC1(C)OC2OC(COC(=O)C(c3ccccc3)c3ccccc3)C3OC(C)(C)OC3C2O1` (stereo not given), the TGI was > 100 µM in the assay with SK-MEL-2 melanoma; > 100 µM with HCC-2998 colon; 42.7 µM in the assay with RPMI-8226 leukemia; > 100 µM with UO-31 renal; > 100 µM with SK-MEL-28 melanoma; > 100 µM in the assay on NCI-H460 lung. Further, the GI50 with HCC-2998 colon is > 100 µM.

Regarding `O=C(CCC(=O)C1Cc2ccccc2C1=O)Nc1cccc(C(F)(F)F)c1` (stereo not given), the TGI in the assay with SK-MEL-2 melanoma, in the assay with HCC-2998 colon, with UO-31 renal and in the assay with NCI-H460 lung was > 100 µM each time.

On to `Cn1cc(NC(=O)c2cc(NC(=O)CCCCCCCC(=O)Nc3cc(C(=O)Nc4cc(C(=O)NCCC(=N)N)n(C)c4)n(C)c3)cn2C)cc1C(=O)NCCC(=N)N`, for which the TGI in the assay on SK-MEL-2 melanoma is 27.9 µM; in the assay on HCC-2998 colon, 30.2 µM; with UO-31 renal it was > 100 µM; with SK-MEL-28 melanoma, 26.3 µM; in the assay with NCI-H460 lung it was 22 µM.

Consider `C1CCN2CC3CONC3C2C1` (stereo not given), for which the TGI with SK-MEL-2 melanoma, in the assay with HCC-2998 colon, in the assay with RPMI-8226 leukemia, in the assay on UO-31 renal, in the assay with SK-MEL-28 melanoma and with NCI-H460 lung was > 100 µM throughout.

Turning to `Nc1c(C(=O)Nc2ccccc2O)[n+]([O-])c2ccccc2[n+]1[O-]`, the TGI in the assay on SK-MEL-2 melanoma, in the assay on RPMI-8226 leukemia, in the assay with UO-31 renal, in the assay with SK-MEL-28 melanoma and with NCI-H460 lung was > 100 µM in each case.

On to `O=c1c2cccc3cccc(c4n1CCCN=4)c32`, for which the TGI with SK-MEL-2 melanoma, with RPMI-8226 leukemia, in the assay on UO-31 renal, in the assay with SK-MEL-28 melanoma and with NCI-H460 lung was > 100 µM each time.

On to `COc1ccc2c3c(c(C(=O)O)oc13)C(CCC(=O)O)CC2` (stereo not given), for which the TGI in the assay with HCC-2998 colon, in the assay with SK-MEL-28 melanoma and with NCI-H460 lung was > 100 µM each time.

In the case of `Nc1nc(-c2ccccc2)cc(-c2cc(Cl)ccc2O)n1`, the TGI in the assay with HCC-2998 colon, in the assay on RPMI-8226 leukemia, in the assay on UO-31 renal, in the assay on SK-MEL-28 melanoma and with NCI-H460 lung was > 100 µM throughout.

In the case of `CC(=O)c1c(O)c2c([nH]c1=O)CCCC2`, the TGI is 53.4 µM with HCC-2998 colon, 31.2 µM with UO-31 renal, > 100 µM in the assay with SK-MEL-28 melanoma and 30.5 µM in the assay with NCI-H460 lung.

For the compound `Cc1csc(CCC(N)C(=O)O)n1` (stereo not given), the TGI in the assay on HCC-2998 colon, with RPMI-8226 leukemia, in the assay with UO-31 renal, in the assay with SK-MEL-28 melanoma and with NCI-H460 lung was > 100 µM each time.
